The results in this text go back to patent publication US20250236613A1, “SARM1 MODULATORS, PREPARATIONS, AND USES THEREOF” (SIRONAX LTD., priority 2021, published 2025).

pIC50: −log10 of the molar value.

Sequence of SARM1 (50-724) (Q6SZW1 50-724): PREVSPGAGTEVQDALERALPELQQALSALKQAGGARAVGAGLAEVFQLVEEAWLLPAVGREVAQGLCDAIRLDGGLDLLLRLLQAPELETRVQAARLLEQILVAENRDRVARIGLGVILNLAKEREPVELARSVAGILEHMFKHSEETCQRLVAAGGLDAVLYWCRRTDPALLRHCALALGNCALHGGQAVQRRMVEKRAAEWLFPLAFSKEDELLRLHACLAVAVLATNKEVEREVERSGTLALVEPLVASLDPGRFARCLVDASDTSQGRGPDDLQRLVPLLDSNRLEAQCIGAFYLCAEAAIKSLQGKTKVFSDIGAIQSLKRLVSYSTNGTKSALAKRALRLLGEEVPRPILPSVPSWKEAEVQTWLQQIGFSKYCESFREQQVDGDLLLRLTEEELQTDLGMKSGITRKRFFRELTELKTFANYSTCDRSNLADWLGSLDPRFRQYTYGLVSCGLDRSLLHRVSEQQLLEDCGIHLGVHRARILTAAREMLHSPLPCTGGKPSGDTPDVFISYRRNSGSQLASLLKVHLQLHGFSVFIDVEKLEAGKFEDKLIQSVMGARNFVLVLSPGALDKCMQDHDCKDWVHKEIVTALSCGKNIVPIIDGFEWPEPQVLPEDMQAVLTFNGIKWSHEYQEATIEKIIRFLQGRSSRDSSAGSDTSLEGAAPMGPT

The experiment deals with SARM1 (50-724) (Homo sapiens (Human), UniProt Q6SZW1). The experiment is described as follows: SARM1 (50-724) enzymatic assay. The format is biochemical. The settings on record: SARM1 inhibitory activity; 2 nM SARM1 (50-724), 200 μM NMN activator, 100 μM NAD+ substrate, 1 h, LC-MS/MS. As to the method:
The enzymatic assay was performed in a 384-well plate using Dulbecco's PBS buffer as the reaction buffer. Purified SARM1 (50-724) with a final concentration of 2 nM was pre-incubated with the test compound at 1% DMSO final assay concentration for 15 min at room temperature. The reaction was initiated by adding the mixture of 200 μM NMN as activator and 100 μM NAD^+ as substrate. After 1 h of incubation at room temperature, the reaction was terminated with 10 times volume of 70% acetonitrile, then centrifuged at 3800 rpm for 10 min. The samples were analyzed using LC-MS/MS after diluted to the proper concentration by 10 mM ammonium acetate (pH 9.75).
With `Cc1ccncc1-c1ccc2c(c1)NCCO2` [Compound 54, 6-(4-methylpyridin-3-yl)-3,4-dihydro-2H-benzo[b][1,4]oxazine], the negative logarithm of the IC50 (pIC50) (as a rule, the negative decadic logarithm of the IC50, by convention in mol/L) is 4.52 to 4.82.

Turning to `Cc1ccnnc1-c1ccc2[nH]c(=O)oc2c1` [Compound 94, 6-(4-methylpyridazin-3-yl)benzo[d]oxazol-2(3H)-one], the pIC50 was more than 5.30.

The compound `Cc1ccncc1-c1ccc2c(c1)CNC(=N)N2` [Compound 79, 6-(4-methylpyridin-3-yl)-3,4-dihydroquinazolin-2(1H)-imine] had a pIC50 of more than 5.30.

Consider `Cc1ccncc1-c1cncc(O)c1` [Compound 56, 4′-methyl-[3,3′-bipyridin]-5-ol], for which the pIC50 is 4.82 to 5.30.

`Cc1ccncc1-c1cccc(S(N)(=O)=O)c1` [Compound 7, 3-(4-methylpyridin-3-yl)benzenesulfonamide] had a negative logarithm of the IC50 (pIC50) of more than 5.30.

Regarding `Cc1ccncc1-c1ccc2[nH]c(=O)n(C)c2c1` [Compound 57, 1-methyl-6-(4-methylpyridin-3-yl)-1,3-dihydro-2H-benzo[d]imidazol-2-one], the pIC50 was 4.82 to 5.30.

As for `Cc1ccncc1-c1ccc2c(c1)C(=O)NCC2` [Compound 18, 7-(4-methylpyridin-3-yl)-3,4-dihydroisoquinolin-1(2H)-one], the pIC50 is 4.52 to 4.82.

`Cc1ccncc1-c1ccc2[nH]ncc2n1` [Compound 50, 5-(4-methylpyridin-3-yl)-1H-pyrazolo[4,3-b]pyridine] gave a negative-log IC50 (pIC50) of 4.82 to 5.30.

`O=c1[nH]c2ccc(-c3cncc(Nc4cccc(Cl)c4)c3)cc2o1` [Compound 96, 6-(5-((3-chlorophenyl)amino)pyridin-3-yl)benzo[d]oxazol-2(3H)-one] had a pIC50 of more than 5.30.

On to `Cc1ccncc1-c1ccc2c(c1)NC(=O)NC2` [Compound 72, 7-(4-methylpyridin-3-yl)-3,4-dihydroquinazolin-2(1H)-one], for which the pIC50 was 4.82 to 5.30.

For the compound `COc1cc(-c2cnccc2C)ccc1O` [Compound 30, 2-methoxy-4-(4-methylpyridin-3-yl)phenol], the pIC50 is less than 4.52.

With `O=c1[nH]c2ccc(-c3cncc(Nc4cccc(F)c4)c3)cc2o1` [Compound 101, 6-(5-((3-fluorophenyl)amino)pyridin-3-yl)benzo[d]oxazol-2(3H)-one], the pIC50 is more than 5.30.

`Cc1ccncc1-c1ccc2cc[nH]c2c1` [Compound 23, 6-(4-methylpyridin-3-yl)-1H-indole] gave a pIC50 of 4.52 to 4.82.

The compound `Cc1ccncc1-c1ccc2c(c1)CC(=O)N2` [Compound 41, 5-(4-methylpyridin-3-yl)indolin-2-one] gave a pIC50 of more than 5.30.

In turn, `Cc1ccncc1-c1cccc(O)c1Cl` [Compound 27, 2-chloro-3-(4methylpyridin-3-yl)phenol] had a pIC50 of less than 4.52.

`Cc1ccncc1-c1cc(F)c(O)c(Cl)c1` [Compound 61, 2-chloro-6-fluoro-4-(4-methylpyridin-3-yl)phenol] gave a pIC50 of 4.82 to 5.30.

For `Cc1ccncc1-c1ccc2c(c1)COC(=O)N2` [Compound 59, 6-(4-methylpyridin-3-yl)-1,4-dihydro-2H-benzo[d][1,3]oxazin-2-one], the negative-log IC50 (pIC50) was more than 5.30.

`Cc1ccncc1-c1cc(O)cc(Cl)c1` [Compound 60, 3-chloro-5-(4-methylpyridin-3-yl)phenol] gave a pIC50 of more than 5.30.

`Cc1ccncc1-c1cccc(O)c1F` [Compound 13, 2-fluoro-3-(4-methylpyridin-3-yl)phenol]: the pIC50 is more than 5.30.

With `Cc1ccncc1-c1ccc2[nH]c(=O)oc2c1F` [Compound 91, 7-fluoro-6-(4-methylpyridin-3-yl)benzo[d]oxazol-2(3H)-one], the pIC50 is 4.52 to 4.82.

Compound `Cc1ccncc1-c1ccc2[nH]nc(N)c2c1` [Compound 65, 5-(4-methylpyridin-3-yl)-1H-indazol-3-amine] had a pIC50 of less than 4.52.

For the compound `Cc1ccncc1-c1ccc(CN)cc1` [Compound 8, (4-(4-methylpyridin-3-yl)phenyl)methanamine], the pIC50 was more than 5.30.

As for `Cc1ccncc1-c1ccc2[nH]nc(C(F)(F)F)c2c1` [Compound 93, 5-(4-methylpyridin-3-yl)-3-(trifluoromethyl)-1H-indazole], the pIC50 is 4.82 to 5.30.

Compound `CC(=O)Nc1nc2cc(-c3cnccc3C)ccc2[nH]1` [Compound 73, N-(5-(4-methylpyridin-3-yl)-1H-benzo[d]imidazol-2-yl)acetamide] gave a pIC50 of more than 5.30.

Regarding `Cc1ccncc1-c1ccc(O)c(Br)c1` [Compound 15, 2-bromo-4-(4-methylpyridin-3-yl)phenol], the pIC50 is more than 5.30.

In turn, `Cc1ccncc1-c1ccc2[nH]c(N)nc2c1` [Compound 64, 5-(4-methylpyridin-3-yl)-1H-benzo[d]imidazol-2-amine] had a pIC50 of more than 5.30.

For `Oc1cccc(-c2cccnc2)c1` [Compound 10, 3-(pyridin-3-yl)phenol], the negative-log IC50 (pIC50) was 4.52 to 4.82.

Consider `Cc1ccncc1-c1ccc(O)c(F)c1` [Compound 11, 2-fluoro-4-(4-methylpyridin-3-yl)phenol], for which the negative logarithm of the IC50 (pIC50) was less than 4.52.

As for `CC(C)c1cccc(Nc2cncc(-c3ccc4[nH]c(=O)oc4c3)c2)c1` [Compound 103, 6-(5-((3-isopropylphenyl)amino)pyridin-3-yl)benzo[d]oxazol-2(3H)-one], the pIC50 is more than 5.30.

`Cc1ccncc1-c1ccc2c(c1)OCCC(=O)N2` [Compound 85, 8-(4-methylpyridin-3-yl)-2,3-dihydrobenzo[b][1,4]oxazepin-4(5H)-one] had a pIC50 of 4.82 to 5.30.

Compound `O=c1[nH]c2ccc(-c3cncc(Nc4cccc(O)c4)c3)cc2o1` [Compound 95, 6-(5-((3-hydroxyphenyl)amino)pyridin-3-yl)benzo[d]oxazol-2(3H)-one] gave a pIC50 of more than 5.30.

The compound `Cc1ccncc1-c1ccc2c(c1)CNC(=O)N2` [Compound 46, 6-(4-methylpyridin-3-yl)-3,4-dihydroquinazolin-2(1H)-one] had a pIC50 of less than 4.52.

`Cc1cc(-c2cnccc2C)ccc1O` [Compound 28, 2-methyl-4-(4-methylpyridin-3-yl)phenol] had a pIC50 of more than 5.30.

In turn, `Cc1ccncc1-c1ccc2oc(=O)[nH]c2c1` [Compound 52, 5-(4-methylpyridin-3-yl)benzo[d]oxazol-2(3H)-one] showed a pIC50 of 4.82 to 5.30.

For the compound `Cc1ncncc1-c1ccc2[nH]c(=O)oc2c1` [Compound 78, 6-(4-methylpyrimidin-5-yl)benzo[d]oxazol-2(3H)-one], the pIC50 is less than 4.52.

The compound `Cc1ccncc1-c1ccc2c(c1)C(=O)C(=O)N2` [Compound 76, 5-(4-methylpyridin-3-yl)indoline-2,3-dione] had a pIC50 of more than 5.30.

The compound `Cc1ccncc1-c1ccc2[nH]c(C#N)cc2c1` [Compound 88, 5-(4-methylpyridin-3-yl)-1H-indole-2-carbonitrile] showed a pIC50 of more than 5.30.

In the case of `Cc1ccncc1-c1ccc(O)c(Cl)c1` [Compound 31, 2-chloro-4-(4-methylpyridin-3-yl)phenol], the pIC50 is more than 5.30.

In turn, `COc1cccc(Nc2cncc(-c3ccc4[nH]c(=O)oc4c3)c2)c1` [Compound 97, 6-(5-((3-methoxyphenyl)amino)pyridin-3-yl)benzo[d]oxazol-2(3H)-one] gave a pIC50 of more than 5.30.

Take `Cc1ccncc1-c1cc(O)cc(F)c1` [Compound 20, 3-fluoro-5-(4-methylpyridin-3-yl)phenol]: the pIC50 is more than 5.30.

In turn, `O=c1[nH]c2ccc(-c3cncc(Nc4cccnn4)c3)cc2o1` [Compound 118, 6-(5-(pyridazin-3-ylamino)pyridin-3-yl)benzo[d]oxazol-2(3H)-one] had a pIC50 of more than 5.30.

With `Cc1ccncc1-c1ccc2c(c1)N(C)S(=O)(=O)N2` [Compound 70, 1-methyl-6-(4-methylpyridin-3-yl)-1,3-dihydrobenzo[c][1,2,5]thiadiazole 2,2-dioxide], the pIC50 was 4.52 to 4.82.

The compound `Cc1ccncc1-c1ccc2[nH]c(=O)[nH]c(=O)c2c1` [Compound 120, 6-(4-methylpyridin-3-yl)quinazoline-2,4(1H,3H)-dione] had a pIC50 of more than 5.30.

Take `O=c1[nH]c2ccc(-c3cncc(Nc4ccc5c(c4)NCCC5)c3)cc2o1` [Compound 99, 6-(5-((1,2,3,4-tetrahydroquinolin-7-yl)amino)pyridin-3-yl)benzo[d]oxazol-2(3)-one]: the pIC50 is more than 5.30.

Consider `Cc1ccncc1-c1ccc2c(c1)CCN2` [Compound 33, 5-(4-methylpyridin-3-yl)indoline], for which the pIC50 was 4.52 to 4.82.

`Cc1ccncc1-c1cccc(O)c1C` [Compound 26, 2-methyl-3-(4-methylpyridin-3-yl)phenol] gave a negative-log IC50 (pIC50) of less than 4.52.

As for `Cc1ccncc1-c1ccc2[nH]cnc2c1` [Compound 25, 5-(4-methylpyridin-3-yl)-1H-benzo[d]imidazole], the pIC50 was more than 5.30.

`Cc1ccncc1-c1ccc2[nH]ccc2c1` [Compound 21, 5-(4-methylpyridin-3-yl)-1H-indole] gave a pIC50 of more than 5.30.

`Cc1ccncc1-c1ccc(O)c(O)c1` [Compound 47, 4-(4-methylpyridin-3-yl)benzene-1,2-diol] had a pIC50 of more than 5.30.

As for `CCc1ccncc1-c1ccc2[nH]c(=O)oc2c1` [Compound 83, 6-(4-ethylpyridin-3-yl)benzo[d]oxazol-2(3H)-one], the pIC50 was more than 5.30.

In turn, `O=c1[nH]c2ccc(-c3cncc(Nc4ccccc4F)c3)cc2o1` [Compound 102, 6-(5-((2-fluorophenyl)amino)pyridin-3-yl)benzo[d]oxazol-2(3H)-one] had a pIC50 of more than 5.30.

`Cc1ccncc1-c1ccc2[nH]nc(F)c2c1` [Compound 68, 3-fluoro-5-(4-methylpyridin-3-yl)-1H-indazole] had a pIC50 of more than 5.30.

Consider `Nc1cncc(-c2ccc3[nH]c(=O)oc3c2)c1` [Compound 77, 6-(5-aminopyridin-3-yl)benzo[d]oxazol-2(3H)-one], for which the pIC50 was 4.82 to 5.30.
